Experimental findings from paper PMC10502027, “Class III hybrid cluster protein homodimeric architecture shows evolutionary relationship with Ni, Fe-carbon monoxide dehydrogenases” (Nature Communications, 2023) are described below.

The target of the assay is T1, Mm HCP (Methanothermobacter marburgensis, UniProt D9PYV4).
T1 construct: full length with N-terminal rubredoxin domain (Met1-Arg52), C-terminal His6-tag, recombinant from E. coli C41(DE3) with pBBRISC, anaerobically purified; homodimer
T1 sequence (D9PYV4 1-491): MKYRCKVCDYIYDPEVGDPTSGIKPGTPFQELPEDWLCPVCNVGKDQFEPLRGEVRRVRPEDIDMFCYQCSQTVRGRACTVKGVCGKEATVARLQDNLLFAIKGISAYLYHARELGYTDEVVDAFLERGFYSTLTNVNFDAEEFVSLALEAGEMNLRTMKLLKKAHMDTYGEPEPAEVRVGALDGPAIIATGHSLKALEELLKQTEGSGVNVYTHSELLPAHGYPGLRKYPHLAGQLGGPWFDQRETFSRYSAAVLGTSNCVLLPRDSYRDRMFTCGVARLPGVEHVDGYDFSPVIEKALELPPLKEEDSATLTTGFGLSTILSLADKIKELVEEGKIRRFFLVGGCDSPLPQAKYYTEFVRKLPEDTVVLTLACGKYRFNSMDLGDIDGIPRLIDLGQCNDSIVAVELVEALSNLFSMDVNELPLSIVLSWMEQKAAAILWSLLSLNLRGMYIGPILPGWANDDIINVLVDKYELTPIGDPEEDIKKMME
In kind it is binding.

With `[S]12[Fe]3[S]4[Fe]1[S]1[Fe]2[S]3[Fe]41` [[4Fe-4S] cluster], the “X-ray crystal structure, 2.8 Å” value is “The Fe ions, [4Fe-4S] cluster and hybrid cluster ([4Fe-2S-3O] cluster) are represented as spheres”.
